Measured values from US4582845A, “Pharmaceutical composition for injection” (Sumitomo Pharmaceuticals Co., Ltd., priority 1980, dated 1986).
Values after ≈ are worked out from the molar mass of the structure shown.

Columns and labels:
Assay type in all cases: physicochemical
[1] = Solubility in solutions of basic substances (Experimental Example 7)
Experimental: (§1) Excess amounts of the Compound A were dispersed in aqueous solutions containing various surfactants and additives, respectively. In each case, the solubility of the compound was determined by measuring the light absorbance at 277 nm with the filtrate. For non-aqueous vehicles marked with *, the corresponding solubility of the compound was judged by eye-measurement.
Using the same procedures as stated in Experimental Example 6, solubility measurements were carried out.

[2] = Solubility in aqueous solutions of surfactants/additives and non-aqueous vehicles (Experimental Example 6)
Experimental: as §1

[3] = Solubility in water; details: 25° C., as free base form
[4] = Coloration of Compound A on exposure to oxygen, heat or light

Molecule `NC(=O)c1nc[nH]c1O` [Compound A, 4-carbamoyl-5-hydroxyimidazole] has a solubility ([1]; pH 8.2, 5% L-lysine, pH of solvent 8.20) of 10700 µg/mL (≈ 84.2 mM), a solubility ([1]; pH 8.42, aqueous buffer, NaHCO3-Na2CO3 buffer, pH of solvent 8.42) of 26700 µg/mL (≈ 210 mM) and a solubility ([1]; pH 8.44, 5% borax, pH of solvent 8.44) of 22200 µg/mL (≈ 175 mM). For the same molecule, the solubility ([1]; pH 8.5, 0.5% NaOH, pH of solvent 8.50) was 21400 µg/mL (≈ 168 mM), the solubility ([1]; pH 8.56, 5% trishydroxy methylamino methane, pH of solvent 8.56) was 25700 µg/mL (≈ 202 mM) and the solubility ([1]; pH 8.64, 1% ethanolamine, pH of solvent 8.64) was 24900 µg/mL (≈ 196 mM). For the same molecule, the solubility ([1]; pH 8.69, 5% L-arginine, pH of solvent 8.69) was 33500 µg/mL (≈ 264 mM), the solubility ([2]; 5% amycol no. 1) was 5100 µg/mL (≈ 40.1 mM) and the solubility ([2]; 5% ethylurea) was 5600 µg/mL (≈ 44.1 mM). The solubility ([2]; 5% levulinic acid) was 6300 µg/mL (≈ 49.6 mM), the solubility ([2]; 5% nicotinic amide) was 7200 µg/mL (≈ 56.6 mM) and the solubility ([2]; 5% polyoxyethylene hydrogenated castor oil, organic solvent or mixture) was 4500 µg/mL (≈ 35.4 mM). It also gave a solubility ([2]; 5% polyoxyethylene sorbitan monooleate) of 4600 µg/mL (≈ 36.2 mM), a solubility ([2]; 5% sodium lauryl sulfate) of 4700 µg/mL (≈ 37 mM) and a solubility ([2]; 5% sodium salicylate) of 6500 µg/mL (≈ 51.1 mM). For the same molecule, the solubility ([2]; 5% tartaric acid) was 7000 µg/mL (≈ 55.1 mM), the solubility ([2]; 10% mannitol) was 4600 µg/mL (≈ 36.2 mM) and the “Solubility (in words)” value ([2]; 10% sodium deoxycholate) was “white gel”. The solubility ([2]; corn oil, organic solvent or mixture) was under 2000 µg/mL, the solubility ([2]; cotton seed oil, organic solvent or mixture) was under 2000 µg/mL and the solubility ([2]; ethanol, organic solvent or mixture) was under 2000 µg/mL. It also gave a solubility ([2]; glycerine, organic solvent or mixture) of about 3000 µg/mL (≈ 23.6 mM), a solubility ([2]; n,n-dimethylacetamide, organic solvent or mixture) of under 2000 µg/mL and a solubility ([2]; polyethylene glycol, organic solvent or mixture) of under 2000 µg/mL. For the same molecule, the solubility ([2]; propylene glycol, organic solvent or mixture) was about 5000 µg/mL (≈ 39.3 mM), the solubility ([2]; saturated aspartic acid) was 5400 µg/mL (≈ 42.5 mM) and the “Solubility (in words)” value ([2]; saturated gentisic acid) was “white gel”. For the same molecule, the solubility ([2]; saturated glutamic acid) was 5300 µg/mL (≈ 41.7 mM), the solubility ([2]; sesame oil, organic solvent or mixture) was under 2000 µg/mL and the solubility ([2]; water) was 4700 µg/mL (≈ 37 mM). The solubility [3] was about 4700 µg/mL (≈ 37 mM) and the coloration / instability [4] was “so unstable that it is easily colored upon exposure to oxygen, heat, or light”.
